The text below walks through data of patent US20110152225A1, “PPAR-Gamma Agonists for the Induction of Cationic Antimicrobial Peptide Expression as Immunoprotective Stimulants” (priority 2007, published 2011).

One test has as its system HD-5. The experiment in a line: HD-5 defensin gene expression in intestinal epithelial cells (Caco-2), quantitative PCR. It is filed as cell-based, human. The note with it: for activation of HD-5, as determined by quantitative PCR analysis: Caco-2 cells. How it is done: (§1) Cultured intestinal epithelial cell lines, namely Caco-2 (of human origin) and ICcl2 (of mice origin), were treated with the GSK-3 inhibitor LiCl ([…]) or the phosphatase inhibitor calyculin (50 nM) followed or not by stimulation with the PPAR-gamma agonist such as rosiglitazone (1 microM).
(§2) The expression of defensin and known target genes of both Wnt and PPAR-gamma signaling pathways were investigated by quantitative real-time PCR. The activation of GSK3, beta-catenin, NF-kappaB, ERK1/2, SAPK/JNK and p38 was measured by specific immunoblotting.

The next test has as its system cyclin-D1. Nature of the test: Expression of Wnt/Tcf/beta-catenin target gene cyclin-D1, quantitative real-time PCR. The class given is cell-based. The note with it: stimulation by both calyculin and rosiglitazone. The protocol: as §1, §2
A further test deals with beta-catenin. Nature of the test: Stability of beta-catenin, immunoblotting. The class given is cell-based. The note with it: stimulation by both calyculin and rosiglitazone. The protocol:
as §1, §2
Background: A western blot detects proteins with antibodies after separation by electrophoresis.

In a further test the test system is LL37. Nature of the test: LL37 (defensin) mRNA expression in colon of healthy mice. Particulars: for induction of defensin expression / potency in defensin expression induction compared to 5-ASA: conclusion on the in vitro and in vivo results; for colon defensin (LL37) mRNA expression: healthy mice (n=5), enema during 10 days, 5-ASA 30 mM, R34, E1 and E2 1 mM. The class given is in vivo. How it is done: […] Post-mortem, total RNA was isolated from whole mice colonic tissues using Rneasy kit (Macherey Nagel, Hoerdt, France) according to the manufacturer's instructions. RNA quantification was performed using spectrophotometry. After treatment at 37° C. for 30 min with 20-50 units of RNase-free DNase I (Roche Diagnostics Corporation, Indianapolis, Ind., USA), oligo-dT primers (Roche Diagnostics Corporation, Indianapolis, USA) were used to synthesize single-stranded cDNA. mRNAs were quantified using SYBR green Master Mix (Applera, Courtaboeuf, France) with mouse specific oligonucleotides for LL37(S:5′-gCTgATTCTTTTgACATCAgCTgTAA-3′ AS:5′-gCCAgCCgggAAATTTTCT-3′) in a GeneAmp Abiprism 7000 (Applera, Courtaboeuf, France). In each assay, calibrated and no-template controls were included. Each sample was run in triplicate. SYBR green dye intensity was analyzed using the Abiprism 7000 SDS software (Applera, Courtaboeuf, France). All results were normalized to the unaffected housekeeping gene β-actin (S:5′-gggTCAgAAggATTCCTATg-3′; AS:5′ ggTCTCAAACATgATCTggg-3′).

For a further test, the system named is PPAR-gamma. Nature of the test: PPAR-gamma mRNA expression in colon of healthy mice. It is filed as in vivo. The note with it: healthy mice (n=5); enema during 10 days; 5-ASA 30 mM, R34, E1 and E2 1 mM.
The next test relates to hBD1. Nature of the test: hBD1 defensin mRNA expression in colonic epithelial Caco-2 cells. The class given is cell-based, human. Particulars: stimulated for 24 h. An excerpt: 5-ASA was purchased at Sigma-Aldrich (St Quentin Fallavier, France). Rosiglitazone was synthesized in the laboratory according to standard procedures. The racemic compound 34 and the two enantiomers of the compound, 34-E1 and 34-E2 were provided by Giuliani SpA (Milano, Italy). Compound were re-suspended in DMEM medium (Gibco) and adjusted at pH=7 if necessary with 10N NaOH.
The colon carcinoma cell line Caco-2 (ATCC HTB-39) was routinely grown in DMEM supplemented respectively with 10% or 20% heat-FCS, and antibiotics. Cells were grown in monolayers, incubated at 37° C. in 5% CO2 and 95% relative humidity.
Cell were stimulated by 5-ASA, R34, 34-E1 and 34-E2 for 24 h. Total RNA was isolated from cells using Rneasy kit (Macherey Nagel, Hoerdt, France) according to the manufacturer's instructions. RNA quantification was performed using spectrophotometry. After treatment at 37° C. for 30 min with 20-50 units of RNase-free DNase I (Roche Diagnostics Corporation, Indianapolis, Ind., USA), oligo-dT primers (Roche Diagnostics Corporation, Indianapolis, USA) were used to synthesize single-stranded cDNA. mRNAs were quantified using SYBR green Master Mix (Applera, Courtaboeuf, France) with human specific oligonucleotides for hBD1(S:5′-[…]-3′; AS:5′-TTgTCTGAGATGGCCTCAggTggTAAC-3′) in a GeneAmp Abiprism 7000 (Applera, Courtaboeuf, France). In each assay, calibrated and no-template controls were included. Each sample was run in triplicate. SYBR green dye intensity was analyzed using the Abiprism 7000 SDS software (Applera, Courtaboeuf, France). All results were normalized to the unaffected housekeeping gene of human β-actin (S:5′-TCACCCACACTgTgCCCATCTACg-3′; AS:5′-CAgCggAACCgCTCATTgCCAATg-3′).

The test system of test [1] is Clostridium bacterial cultures. Particulars: agar plates in aerobic and anaerobic conditions; U.S. Pat. No. 6,326,364; cited from earlier work.
The subject of test [2] is colonies of Lactobacillus, Enterococcus or Bacteroides. The note with it: U.S. Pat. No. 6,326,364; cited from earlier work.

With calyculin, in the test with HD-5 (co-stimulation by calyculin with rosiglitazone and other PPAR-gamma activators), the “antimicrobial (defensin) gene expression induced by PPAR-gamma activators following co-stimulation” value was “synergized”. Further, the “expression of Wnt/Tcf/beta-catenin target gene cyclin-D1” value in the test with cyclin-D1 is given as “markedly decreased”. Also, in the test with beta-catenin, the “stability of the beta-catenin” value is reported as “markedly decreased”.
In the case of `COc1ccc(N)cc1C(=O)NO` [Compound 14, 5-amino-N-hydroxy-2-methoxybenzamide], the “activation of HD-5, as determined by quantitative PCR analysis” value (shortened to “activation of HD-5, as determined”) in the test with HD-5 was “activates HD-5”.
Regarding `CCOC(Cc1cccc(N)c1)C(=O)O` (racemic) [Compound 40, (±)-2-ethoxy-3-(3′-aminophenyl)propionic acid], the “activation of HD-5, as determined” value in the test on HD-5 is given as “activates HD-5”.
Consider `[Cl-].[Li+]` [LiCl, reference compound], for which the “rosiglitazone-induced defensin gene expression” value in the test with HD-5 (co-stimulation with LiCl) was “blocked”.
On to `CCOC(Cc1ccc(N)cc1)C(=O)O` (racemic) [Compound 39, (±)-2-ethoxy-3-(4′-aminophenyl)propionic acid], for which the “activation of HD-5, as determined” value in the test on HD-5 is recorded as “activates HD-5”.
In the case of `CO[C@@H](Cc1cccc(N)c1)C(=O)O` [Compound 34-E1, (+) 2-S-methoxy-3-(3-aminophenyl)propionic acid], in the test with LL37, the “induction of defensin expression” value is given as “induction of defensin expression”, the “potency in defensin expression induction compared to 5-ASA” value is recorded as “higher potency” and the “colon defensin (LL37) mRNA expression” value is listed as “induced”. Also, in the test with PPAR-gamma, the “colon PPARy mRNA expression” value is recorded as “induced”.
With `CO[C@H](Cc1cccc(N)c1)C(=O)O` [Compound 34-E2, (−) 2-R-methoxy-3-(3-aminophenyl)propionic acid], the “expression of hBD1 (human defensin-1)” value in the test on hBD1 was “induce the expression of hBD1”. Moreover, in the test with LL37, the “induction of defensin expression” value is “induction of defensin expression”, the “potency in defensin expression induction compared to 5-ASA” value is “higher potency” and the “colon defensin (LL37) mRNA expression” value is on record as “induced”. For the same compound, in the test with LL37 (summary statement referring to FIGS. 8 & 9), the “gut defensin expression induction” value was “particularly effective”. Further, in the test with PPAR-gamma, the “colon PPARy mRNA expression” value was “induced”.
In the case of `COC(Cc1ccc(N)cc1)C(=O)O` (racemic) [Compound R34, (±)-2-methoxy-3-(4′-aminophenyl)propionic acid], the “expression of hBD1 (human defensin-1)” value in the test on hBD1 is “induce the expression of hBD1”. In addition, in the test with LL37, the “induction of defensin expression” value is reported as “induction of defensin expression” and the “colon defensin (LL37) mRNA expression” value is recorded as “induced”. Moreover, the “colon PPARy mRNA expression” value in the test with PPAR-gamma is reported as “induced”.
Consider `Nc1ccc(O)c(C(=O)O)c1` [Compound 5-ASA, 5-aminosalycilate, reference compound], for which, in the test on HD-5, the “activation of HD-5, as determined” value is listed as “activates HD-5”. Also, the “expression of hBD1 (human defensin-1)” value in the test on hBD1 is on record as “induce the expression of hBD1”. In the test with LL37, the “induction of defensin expression” value was “induction of defensin expression” and the “colon defensin (LL37) mRNA expression” value is “induced”. The “colon PPARy mRNA expression” value with PPAR-gamma is reported as “induced”. Besides, the “antimicrobial effect against Clostridium bacterial cultures” value in test [1] is listed as “inhibitory effects”. Moreover, in test [2], the “antimicrobial effect against colonies of Lactobacillus, Enterococcus or Bacteroides” value was “No effect”.
